Source: doi:10.1101/2021.04.08.439011v1 (biorxiv, 2021)
Read-outs that look alike come from different tables or passages of the source.

What was measured:
[1] = target: ERK4 (Homo sapiens, UniProt P31152); settings: 1 µM; binder
[2] = target: PIM2 (Homo sapiens, UniProt Q9P1W9); settings: 1 µM; binder
[3] = target: GAK (Homo sapiens, UniProt O14976); settings: 1 µM; binder
[4] = target: TEC (Homo sapiens, UniProt P42680); settings: 1 µM; binder
[5] = target: LRRK2(G2019S) (Homo sapiens, UniProt Q5S007, G2019S); settings: 1 µM; binder
[6] = target: ERK1 (Homo sapiens, UniProt P27361); settings: 1 µM; binder
[7] = target: JNK3 (Homo sapiens, UniProt P53779); settings: 1 µM; binder
[8] = target: CAMK2A (Homo sapiens, UniProt Q9UQM7); settings: 1 µM; binder
[9] = target: ERK8 (Homo sapiens, UniProt Q8TD08); settings: 1 µM; binder
[10] = target: ABL1(F317I) (Homo sapiens, UniProt P00519, F317I); settings: 1 µM, binder
[11] = target: GSK3A (Homo sapiens, UniProt P49840); settings: 1 µM; binder
[12] = target: VEGFR2 (Homo sapiens, UniProt P35968); settings: 1 µM; binder
[13] = target: MUSK (Homo sapiens, UniProt O15146); settings: 1 µM; binder
[14] = target: YSK1 (Homo sapiens, UniProt O00506); settings: 1 µM; binder
[15] = target: CDK7 (Homo sapiens, UniProt P50613); settings: 1 µM; binder
[16] = target: SGK3 (Homo sapiens, UniProt Q96BR1); settings: 1 µM; binder
[17] = target: FES (Homo sapiens, UniProt P07332); settings: 1 µM; binder
[18] = target: ULK2 (Homo sapiens, UniProt Q8IYT8); settings: 1 µM; binder
[19] = target: SYK (Homo sapiens, UniProt P43405); settings: 1 µM; binder
[20] = target: EPHB1 (Homo sapiens, UniProt P54762); settings: 1 µM; binder
[21] = target: MAK (Homo sapiens, UniProt P20794); settings: 1 µM; binder
[22] = target: FLT3(ITD,D835V) (Homo sapiens, UniProt P36888, D835V/ITD); settings: 1 µM; binder
[23] = target: MST3 (Homo sapiens, UniProt Q9Y6E0); settings: 1 µM; binder
[24] = target: RPS6KA2 (Homo sapiens, UniProt Q15349); settings: binder
[25] = target: ABL1(H396P) (Homo sapiens, UniProt P00519, H396P); settings: 1 µM, binder
[26] = target: MEK4 (Homo sapiens, UniProt P45985); settings: 1 µM; binder
[27] = target: PLK2 (Homo sapiens, UniProt Q9NYY3); settings: 1 µM; binder
[28] = target: IRAK3 (Homo sapiens, UniProt Q9Y616); settings: 1 µM; binder
[29] = target: GCN2(Kin.Dom.2,S808G) (Homo sapiens, UniProt Q9P2K8, S808G); settings: 1 µM; binder

Chain of RPS6KA2 (Q15349 whole entry): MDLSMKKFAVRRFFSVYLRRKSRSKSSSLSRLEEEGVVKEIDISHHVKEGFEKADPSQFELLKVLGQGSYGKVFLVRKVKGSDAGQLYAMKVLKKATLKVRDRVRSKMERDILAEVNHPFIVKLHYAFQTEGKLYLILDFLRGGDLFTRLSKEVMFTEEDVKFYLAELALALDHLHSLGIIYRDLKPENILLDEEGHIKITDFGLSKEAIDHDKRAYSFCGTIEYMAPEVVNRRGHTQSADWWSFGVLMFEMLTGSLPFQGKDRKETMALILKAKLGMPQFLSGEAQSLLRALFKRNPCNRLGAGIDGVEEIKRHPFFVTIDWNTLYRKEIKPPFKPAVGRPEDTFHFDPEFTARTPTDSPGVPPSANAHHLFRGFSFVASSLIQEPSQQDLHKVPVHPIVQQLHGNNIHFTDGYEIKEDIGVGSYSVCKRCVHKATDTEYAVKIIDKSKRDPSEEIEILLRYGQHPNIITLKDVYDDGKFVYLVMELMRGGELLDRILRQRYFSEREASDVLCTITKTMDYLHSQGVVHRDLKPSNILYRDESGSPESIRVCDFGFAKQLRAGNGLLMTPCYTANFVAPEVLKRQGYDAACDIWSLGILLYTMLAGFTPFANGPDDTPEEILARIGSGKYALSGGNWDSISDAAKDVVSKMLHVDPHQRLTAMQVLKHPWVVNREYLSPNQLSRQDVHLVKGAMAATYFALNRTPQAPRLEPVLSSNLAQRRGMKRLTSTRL
Chain of LRRK2(G2019S) (Q5S007 whole entry G2019S): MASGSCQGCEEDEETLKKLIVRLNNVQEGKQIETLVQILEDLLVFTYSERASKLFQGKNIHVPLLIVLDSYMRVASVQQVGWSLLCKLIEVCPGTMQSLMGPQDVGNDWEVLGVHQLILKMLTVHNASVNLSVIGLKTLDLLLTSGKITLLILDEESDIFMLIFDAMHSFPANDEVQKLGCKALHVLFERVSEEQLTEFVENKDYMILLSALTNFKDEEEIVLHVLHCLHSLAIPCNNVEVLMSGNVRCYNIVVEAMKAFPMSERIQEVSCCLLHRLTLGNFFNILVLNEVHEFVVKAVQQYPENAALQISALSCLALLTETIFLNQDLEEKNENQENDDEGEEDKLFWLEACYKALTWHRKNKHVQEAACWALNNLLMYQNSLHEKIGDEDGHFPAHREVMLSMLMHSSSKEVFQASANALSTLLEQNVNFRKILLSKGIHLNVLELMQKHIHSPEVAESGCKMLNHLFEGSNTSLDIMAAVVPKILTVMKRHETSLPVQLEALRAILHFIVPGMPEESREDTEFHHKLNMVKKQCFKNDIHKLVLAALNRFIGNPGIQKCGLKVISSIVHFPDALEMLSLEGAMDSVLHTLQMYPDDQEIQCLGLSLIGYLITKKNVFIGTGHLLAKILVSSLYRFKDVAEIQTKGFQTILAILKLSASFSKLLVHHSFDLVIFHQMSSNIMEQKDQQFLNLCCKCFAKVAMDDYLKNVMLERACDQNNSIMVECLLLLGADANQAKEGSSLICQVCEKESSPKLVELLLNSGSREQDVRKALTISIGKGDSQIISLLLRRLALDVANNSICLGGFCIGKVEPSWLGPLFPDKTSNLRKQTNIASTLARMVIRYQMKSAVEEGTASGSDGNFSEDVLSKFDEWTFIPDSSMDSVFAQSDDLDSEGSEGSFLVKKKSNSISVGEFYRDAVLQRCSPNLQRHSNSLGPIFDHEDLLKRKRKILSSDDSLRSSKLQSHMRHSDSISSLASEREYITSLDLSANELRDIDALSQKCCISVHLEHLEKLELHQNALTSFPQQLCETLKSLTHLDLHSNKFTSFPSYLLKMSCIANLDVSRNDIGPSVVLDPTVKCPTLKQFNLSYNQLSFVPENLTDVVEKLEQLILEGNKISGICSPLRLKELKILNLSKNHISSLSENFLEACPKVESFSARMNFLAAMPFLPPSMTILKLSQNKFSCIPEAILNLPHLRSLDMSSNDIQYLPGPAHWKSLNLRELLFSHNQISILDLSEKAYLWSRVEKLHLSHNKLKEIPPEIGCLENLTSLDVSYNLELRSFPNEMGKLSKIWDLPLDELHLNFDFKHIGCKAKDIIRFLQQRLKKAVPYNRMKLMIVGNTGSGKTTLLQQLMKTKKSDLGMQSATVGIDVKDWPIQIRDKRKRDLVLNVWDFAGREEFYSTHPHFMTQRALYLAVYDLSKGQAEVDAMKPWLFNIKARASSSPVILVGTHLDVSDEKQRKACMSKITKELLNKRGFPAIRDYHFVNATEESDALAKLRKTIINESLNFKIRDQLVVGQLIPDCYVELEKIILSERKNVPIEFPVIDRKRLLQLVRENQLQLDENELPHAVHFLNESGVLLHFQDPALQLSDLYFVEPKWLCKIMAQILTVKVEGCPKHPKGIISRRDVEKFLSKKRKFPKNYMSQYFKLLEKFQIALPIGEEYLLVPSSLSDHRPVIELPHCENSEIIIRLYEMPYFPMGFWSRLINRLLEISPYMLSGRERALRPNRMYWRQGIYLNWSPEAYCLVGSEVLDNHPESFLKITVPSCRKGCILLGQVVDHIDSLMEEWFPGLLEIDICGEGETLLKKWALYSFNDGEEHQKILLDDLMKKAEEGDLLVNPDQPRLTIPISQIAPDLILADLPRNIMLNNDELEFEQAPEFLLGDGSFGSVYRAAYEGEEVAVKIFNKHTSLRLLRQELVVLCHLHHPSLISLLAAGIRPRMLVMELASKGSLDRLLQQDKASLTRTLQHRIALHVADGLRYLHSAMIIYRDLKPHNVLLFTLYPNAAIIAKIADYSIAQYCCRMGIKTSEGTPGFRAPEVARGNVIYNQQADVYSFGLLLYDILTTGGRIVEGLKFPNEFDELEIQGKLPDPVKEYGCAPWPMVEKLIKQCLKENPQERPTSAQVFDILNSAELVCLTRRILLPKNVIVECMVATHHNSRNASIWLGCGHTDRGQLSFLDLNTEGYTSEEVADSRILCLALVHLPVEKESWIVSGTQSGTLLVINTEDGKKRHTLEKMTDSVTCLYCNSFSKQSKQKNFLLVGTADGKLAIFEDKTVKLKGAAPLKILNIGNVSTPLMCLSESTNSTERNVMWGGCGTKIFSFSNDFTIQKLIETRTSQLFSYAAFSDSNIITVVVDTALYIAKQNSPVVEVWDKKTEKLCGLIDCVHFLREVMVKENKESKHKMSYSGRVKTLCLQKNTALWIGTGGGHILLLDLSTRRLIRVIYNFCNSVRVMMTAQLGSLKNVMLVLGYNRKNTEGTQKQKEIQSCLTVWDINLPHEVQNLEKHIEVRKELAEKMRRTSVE
Chain of VEGFR2 (P35968 whole entry): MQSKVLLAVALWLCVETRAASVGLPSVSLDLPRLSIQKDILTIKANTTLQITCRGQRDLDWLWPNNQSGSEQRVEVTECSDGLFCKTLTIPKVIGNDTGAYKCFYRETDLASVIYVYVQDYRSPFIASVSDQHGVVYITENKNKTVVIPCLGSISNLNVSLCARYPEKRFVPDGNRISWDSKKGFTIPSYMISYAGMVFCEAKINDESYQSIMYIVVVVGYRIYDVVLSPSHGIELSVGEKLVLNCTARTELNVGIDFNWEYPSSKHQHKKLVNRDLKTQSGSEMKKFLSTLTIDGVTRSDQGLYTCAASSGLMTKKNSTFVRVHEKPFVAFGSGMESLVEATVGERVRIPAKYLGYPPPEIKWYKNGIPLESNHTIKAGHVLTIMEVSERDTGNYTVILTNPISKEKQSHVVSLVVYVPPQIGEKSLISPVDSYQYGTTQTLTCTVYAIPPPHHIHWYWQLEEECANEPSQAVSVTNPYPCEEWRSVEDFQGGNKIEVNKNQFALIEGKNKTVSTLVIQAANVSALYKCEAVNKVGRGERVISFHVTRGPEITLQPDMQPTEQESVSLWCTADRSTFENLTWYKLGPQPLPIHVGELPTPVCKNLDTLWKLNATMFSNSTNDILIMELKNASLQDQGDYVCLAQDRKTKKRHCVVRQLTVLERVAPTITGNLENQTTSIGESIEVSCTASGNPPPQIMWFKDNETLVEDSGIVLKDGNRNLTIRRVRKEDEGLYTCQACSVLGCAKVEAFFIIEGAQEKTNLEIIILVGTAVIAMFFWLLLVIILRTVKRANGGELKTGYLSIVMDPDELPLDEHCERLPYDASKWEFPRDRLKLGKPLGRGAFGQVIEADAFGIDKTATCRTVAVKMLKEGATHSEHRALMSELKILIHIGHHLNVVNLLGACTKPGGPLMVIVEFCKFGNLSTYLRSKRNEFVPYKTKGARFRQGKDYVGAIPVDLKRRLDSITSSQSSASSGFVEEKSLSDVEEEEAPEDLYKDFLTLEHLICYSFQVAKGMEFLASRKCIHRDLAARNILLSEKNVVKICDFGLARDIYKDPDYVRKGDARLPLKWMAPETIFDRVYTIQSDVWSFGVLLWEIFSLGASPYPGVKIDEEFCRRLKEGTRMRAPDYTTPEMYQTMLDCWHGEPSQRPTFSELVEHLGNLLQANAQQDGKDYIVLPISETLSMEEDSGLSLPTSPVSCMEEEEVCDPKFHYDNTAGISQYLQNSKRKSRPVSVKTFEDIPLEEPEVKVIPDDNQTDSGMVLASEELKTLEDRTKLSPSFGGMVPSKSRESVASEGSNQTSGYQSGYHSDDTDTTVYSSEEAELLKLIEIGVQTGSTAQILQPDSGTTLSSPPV
Chain of YSK1 (O00506 whole entry): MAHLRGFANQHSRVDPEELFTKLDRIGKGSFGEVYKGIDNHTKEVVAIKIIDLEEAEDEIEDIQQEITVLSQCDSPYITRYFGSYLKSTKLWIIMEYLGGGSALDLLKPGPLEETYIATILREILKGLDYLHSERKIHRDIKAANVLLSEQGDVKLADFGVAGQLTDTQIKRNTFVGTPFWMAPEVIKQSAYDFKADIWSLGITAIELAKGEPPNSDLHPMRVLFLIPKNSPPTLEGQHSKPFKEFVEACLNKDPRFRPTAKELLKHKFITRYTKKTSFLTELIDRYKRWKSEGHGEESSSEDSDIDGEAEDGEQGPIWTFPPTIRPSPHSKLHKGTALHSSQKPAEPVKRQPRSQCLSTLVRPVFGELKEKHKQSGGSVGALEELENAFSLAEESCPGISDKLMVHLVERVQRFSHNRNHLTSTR

Structure (SMILES): CNc1ncc2cc(-c3ccc(-c4cccc(C)n4)cc3Cl)c(=O)n(C[C@H]3OC[C@H](N)CO3)c2n1 [compound 6, G-5555]
- Percent Control [1]: 100%
- Percent Control [2]: 100%
- Percent Control [3]: 1.7%
- Percent Control [4]: 100%
- Percent Control [5]: 100%
- Percent Control [6]: 74%
- Percent Control [7]: 87%
- Percent Control [8]: 88%
- Percent Control [9]: 100%
- Percent Control ([10]; nonphosphorylated): 100%
- Percent Control ([10]; phosphorylated): 96%
- Percent Control [11]: 100%
- Percent Control [12]: 93%
- Percent Control [13]: 100%
- Percent Control [14]: 36%
- Percent Control [15]: 86%
- Percent Control [16]: 60%
- Percent Control [17]: 84%
- Percent Control [18]: 100%
- Percent Control [19]: 100%
- Percent Control [20]: 100%
- Percent Control [21]: 100%
- Percent Control [22]: 74%
- Percent Control [23]: 1.7%
- Percent Control ([24]; Kin.Dom.1 N-terminal): 57%
- Percent Control ([24]; Kin.Dom.2 C-terminal, 1 µM): 92%
- Percent Control ([25]; nonphosphorylated): 56%
- Percent Control ([25]; phosphorylated): 94%
- Percent Control [26]: 9.6%
- Percent Control [27]: 84%
- Percent Control [28]: 92%
- Percent Control [29]: 63%
